Experimental data: PubChem BioAssay (NCI)
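GI50 = concentration required for 50% inhibition of growth. The concentration for full growth arrest is given as TGI.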

Key:
Experiment in all cases: inhibition of tumour cell growth, NCI panel, 384-well format
[1] = test system: SK-MEL-5 melanoma
[2] = test system: K-562 leukemia
[3] = test system: M14 melanoma
[4] = test system: HCC-2998 colon
[5] = test system: NCI-H226 lung
[6] = test system: SW-620 colon
[7] = test system: HL-60(TB) leukemia
[8] = test system: COLO 205 colon
[9] = test system: LOX IMVI melanoma
[10] = test system: NCI-H23 lung
[11] = test system: HT29 colon
[12] = test system: OVCAR-4 ovarian
[13] = test system: SK-OV-3 ovarian
[14] = test system: OVCAR-5 ovarian
[15] = test system: SR leukemia
[16] = test system: CAKI-1 renal
[17] = test system: NCI-H522 lung
[18] = test system: SF-268 CNS
[19] = test system: DU-145 prostate
[20] = test system: UO-31 renal
[21] = test system: MDA-MB-231 breast
[22] = test system: MOLT-4 leukemia
[23] = test system: KM12 colon
[24] = test system: NCI/ADR-RES ovarian
[25] = test system: MALME-3M melanoma
[26] = test system: MDA-MB-468 breast
[27] = test system: UACC-257 melanoma
[28] = test system: T-47D breast
[29] = test system: HOP-62 NSCLC

`C[C@@H]1COCCN1c1nc(-c2cnc(N)cc2C(F)F)nc(N2[C@H](C)COC[C@@H]2C)n1` was tested, and the GI50 [1] was 53.8 nM, the TGI [1] was 312 nM and the GI50 [2] was 211 nM. It also gave a TGI [2] of 1780 nM, a GI50 [3] of 117 nM and a TGI [3] of 1490 nM. It also gave a GI50 [4] of 104 nM, a TGI [4] of 1610 nM and a GI50 [5] of 75.9 nM. The TGI [5] was 656 nM, the GI50 [6] was 319 nM and the TGI [6] was 11500 nM. It also gave a GI50 [7] of 466 nM, a TGI [7] of 1660 nM and a GI50 [8] of 152 nM. For the same compound, the TGI [8] was 3480 nM, the GI50 [9] was 99 nM and the TGI [9] was 1100 nM. The GI50 [10] was 264 nM, the TGI [10] was 2600 nM and the GI50 [11] was 281 nM. It also gave a TGI [11] of 2440 nM, a GI50 [12] of 68.3 nM and a TGI [12] of 376 nM. The GI50 [13] was 53.3 nM, the TGI [13] was 595 nM and the GI50 [14] was 141 nM. The TGI [14] was 2280 nM, the GI50 [15] was 32.1 nM and the TGI [15] was 131 nM. For the same compound, the GI50 [16] was 123 nM, the TGI [16] was 4840 nM and the GI50 [17] was 128 nM. For the same compound, the TGI [17] was 1400 nM, the GI50 [18] was 228 nM and the TGI [18] was 7710 nM. For the same compound, the GI50 [19] was 143 nM, the TGI [19] was 10400 nM and the GI50 [20] was 290 nM. For the same compound, the TGI [20] was 16300 nM, the GI50 [21] was 61.4 nM and the TGI [21] was 14400 nM. The GI50 [22] was 90.3 nM, the TGI [22] was 508 nM and the GI50 [23] was 144 nM. For the same compound, the TGI [23] was 3090 nM, the GI50 [24] was 291 nM and the TGI [24] was 6440 nM. For the same compound, the GI50 [25] was 27.1 nM, the TGI [25] was 218 nM and the GI50 [26] was 54 nM. It also gave a TGI [26] of 236 nM, a GI50 [27] of 316 nM and a TGI [27] of 1560 nM. For the same compound, the GI50 [28] was 18.7 nM, the TGI [28] was 156 nM and the GI50 [29] was 145 nM.
